In patent US12403151B2, “Compositions for use in the promotion of intestinal muscle growth and development and associated intestinal motility” (SOCIETE DES PRODUITS NESTLE S.A., priority 2017, dated 2025):
Entries after “also recorded” stand apart in the source; their conditions may differ.

Test system: muscle layer of the ileum
Assay: Thickness of the muscle layer of the ileum in young IUGR rats supplemented with HMOs
Assay type: in vivo, Sprague-Dawley rats
Conditions: IUGR rat pups; 3 g/kg body weight HMO by gavage d7 to d21, then 4.5% HMO in diet d22 to d57 (mix: LNnT:2FL 1:2 by weight, 1.5% + 3%); sacrificed at day 57; H&E histology; compared with Normal and IUGR control groups
Description: Three groups of time-mated pregnant Sprague-Dawley female rats were bought from Charles River laboratories. One group was submitted to food restriction of 60% during the last 10 days of gestation and their offspring were cross-fostered to normally fed rats. A second group of pregnant females was normally fed and their offspring cross-fostered among the same group of dams. Immediately after birth (postnatal day 2 (d=2)), the born rat pups—subjects of the experiment—were assigned to one of the following groups: • Normal group (positive control): Normal-weight offspring born from unrestricted dams and fed after birth a normal non-supplemented diet; • IUGR group (negative control; n=20): IUGR rats being fed a normal diet after birth; • IUGR rats+HMO (test groups): During the experiment, they were reared by their mothers for 21 days and supplemented with HMOs (2-FL, LNnT or the Mix of 2-FL and LNnT). At weaning, they were fed a diet supplemented with the same HMOs, see details below. […]
Rats were sacrificed at day 57 after a 6-hr fasting period and samples of the small intestine were collected. The thickness of the muscle layer was measured on a sample of the ileum. […]

Compound	thickness of the muscle layer of the ileum (mean per group, FIG. 1)
2′-fucosyllactose [2FL, reference compound]	no increase in intestinal muscle thickness
CC(=O)N[C@H]1[C@H](O[C@H]2[C@@H](O)[C@@H](CO)O[C@@H](O[C@H]3[C@H](O)[C@@H](O)C(O)O[C@@H]3CO)[C@@H]2O)O[C@H](CO)[C@@H](O[C@@H]2O[C@H](CO)[C@H](O)[C@H](O)[C@H]2O)[C@@H]1O (mixture of isomers) [LNnT, lacto-N-neotetraose]	successful in increasing the thickness; also recorded: increase of the ileum muscle thickness over both the Normal and the IUGR groups
